# Data published in ChEMBL document CHEMBL2094269, “WEHI/Eskitis Trypanosoma b. brucei screening data”.
# pIC50: −log10 of the molar value. “And” between values parts separate entries of the source, which are not always exact repeats. Equal entries are not always repeated.
# Legend:
# [1] = DNDI: Cytotoxicity against human MRC-5 lung fibroblast cells.; conditions: IC50
# [2] = system: Trypanosoma brucei brucei; assay: microbe, parasite or virus in culture; format: functional, organism-based, STIB 795
# Description: DNDI: Inhibition of Human African Trypanosomiasis (HAT), STIB 795, in vitro
SMILES,pIC50 [1],"pIC50 ([2]; Trypanosoma brucei, STIB 795)",pIC50 [2]
CCOC(=O)/C=C\n1nnc2ccccc21,< 4.38,6.30,
O=C1Nc2ccc(OC(F)(F)F)cc2C1=O,< 4.38,5.33,
O=C1c2cccc3cccc(c23)C(=O)N1CCNCCO,< 5.38,5.35,
O=C1/C(=C\c2cccnc2)CCc2ccccc21,< 4.68,5.30,
Cc1[nH]c2ccccc2c1/C=C1\SC(=N)N(c2nccs2)C1=O,< 4.68,5.67,
C=CCS(=O)(=O)c1nc2ccccc2s1,< 4.68,5.24,
CCCC(=O)NC(c1ccc2c(c1)OCO2)c1cc(Cl)c2cccnc2c1O (stereo unspecified),,< 4.98,
Cc1cc(C)c2c(N)c3cccc(C)c3nc2n1,6.05,6.46,
NCCc1c[nH]c2ccc(C3CCCCC3)cc12,< 4.68,5.89,
NC1=C(Cl)C(=O)c2ccccc2C1=O,< 4.38,5.61,
COc1ccc(OC)c(/C=C/C(=O)Nc2ccc(C(=O)OCCC(C)C)cc2)c1,,< 4.98,
CN(C)c1ccc(/C=C/c2cc[n+](C)cc2)cc1,< 4.68,6.34,
Cc1ccccc1C(=O)Nc1ccccn1,< 4.38,5.91,
Nc1ccc2ccc3cccnc3c2n1,< 5.38,5.62,
CN(C)c1ccc(/C=C/c2sc3ccc4ccccc4c3[n+]2C)cc1,< 5.68,> 8.40,
Oc1nncc(N/N=C/c2ccccn2)n1,< 4.68,5.25,
CC1=NN(C(=O)c2ccccc2O)C(C)(O)C1 (stereo unspecified),< 5.98,6.18,
CC12C(=O)N(c3ccc(Cl)cc3O)C(=O)C1C1c3ccccc3C2c2ccccc21 (stereo unspecified),,< 4.98,
Cc1ccccc1-n1sc2ccccc2c1=O,< 4.68,5.70,
Cc1ccc(O)c(/N=N/c2nnc[nH]2)c1,< 4.98,6.39,
O=C(Nc1ccc(Cl)c(-c2nc3ncccc3o2)c1)c1ccco1,< 4.38,6.77,
CC1CCc2nc(SC3CC(=O)C4OCC3O4)nc(C(F)(F)F)c2C1 (stereo unspecified),< 4.68,5.58,
C/C(=C\c1ccccc1)c1nc2c(=O)n(C)c(=O)nc-2n(C)n1,< 4.68,5.25,
CN(C)CCOc1ccccc1C1NCCc2c1[nH]c1ccccc21 (stereo unspecified),< 4.68,5.89,
Cc1c(C)c(C)c2c(CC(C)N)c[nH]c2c1C (stereo unspecified),< 4.38,5.37,
Cc1cccc2ccc(/C=C/c3ccc(N(C)C)cc3)[n+](C)c12,< 5.38,> 8.40,

SMILES,pIC50 [1],"pIC50 ([2]; Trypanosoma brucei, STIB 795)",pIC50 [2]
Oc1c(C(c2ccc(C(F)(F)F)cc2)N2CCOCC2)ccc2cccnc12 (stereo unspecified),< 4.68,5.27,
CC(=O)NC(=S)NNC(=O)c1ccccc1OCc1ccccc1,< 4.68,5.54,
COc1ccc(N2C(=O)CN(Cc3ccccc3)C2=S)cc1Cl,< 4.38,5.26,
COc1ccc(C(=O)C(C)N2C=CC=C/C2=C2\C=CC=CN2)cc1 (stereo unspecified),< 4.38,5.37,
CC[n+]1c(/C=C2\SC=C(c3ccccc3)N2C)ccc2cc(C)ccc21,< 4.98,6.38,
O=C(CC1(O)C(=O)Nc2ccc(I)cc21)c1cccs1 (stereo unspecified),< 4.38,6.03,
COc1ccc(-c2nc(Nc3ccc(F)cc3F)c3ccccc3n2)cc1OC,< 4.38,5.15,
CCOC(=O)c1ccc(CN2C(=O)C(=O)c3cc(OC(F)(F)F)ccc32)o1,< 4.68,5.39,
COc1ccc(N2C(=O)CN(Cc3sccc3C)C2=S)cc1Cl,< 4.38,5.31,
O/N=C1C=C/C(=N\O)c2ncccc2/1,5.31,5.63,
Cc1ccc(CN(C)C)c(O)c(=O)c1,< 4.68,5.25,
O=C(O)c1n[nH]c2c1CCCCCC2,< 5.38,≥ 5.58,
CCc1ccc(/C=N\n2cnnc2)cc1,< 4.38,6.19,
CC(=O)Cc1ccc2cccc(O)c2n1,< 5.38,5.34,
Clc1ccnc2c1ccc1nn[nH]c12,< 4.38,5.36,
CCOc1ccc(/C=N/NC(=N)N)cc1,< 4.38,5.25,
Nc1ccsc1/C=C/c1cccs1,< 4.38,5.30,
Cc1n[nH]c(C)c1/N=N/N1CCOCC1,5.44,6.15,
OC12C[C@@H](C3CO[C@@H]1O3)n1nnnc1N2,< 4.68,5.32,
[O-][n+]1onc2cc(Cl)c3nonc3c21,< 5.38,5.28,
O=C(c1ccccc1)c1ccc(O)c(O)c1,< 4.38,5.92,
Oc1cccc2ccc(CNC3CC3)nc12,< 4.68,5.27,
Cc1nc2c(cc(O)c3ccccc32)s1,< 4.38,5.26,
Cc1cc(C)c2c(c1)CC(C)(C)C(=O)C2=O,< 4.38,5.48,
Cc1cc(Cl)c2c(N)c(C)cc(C)c2n1,< 4.38,5.39,
NC1CCCc2c1[nH]c1ccc(Cl)cc21 (stereo unspecified),< 4.68,,6.08 and 5.64

SMILES,pIC50 [1],"pIC50 ([2]; Trypanosoma brucei, STIB 795)",pIC50 [2]
NC(N)=N/N=C1/C(=O)Nc2ccc(F)cc21,< 4.38,5.85,
O=C1Nc2ccccc2/C1=C/c1ccccn1,< 4.68,5.28,5.28
C=CCNc1nc(N)c(/C(N)=N\C#N)s1,< 4.38,5.49,
CC1(C)CC(=S)C=C(N2CCCCC2)C1,< 4.38,5.71,
CCn1c2cccc(=O)c-2nc2ccccc21,< 4.68,> 7.40,
Nc1ccc(Nc2coc3ccccc23)cc1,< 4.68,5.43,
CSC(=S)N/N=C(\C)c1ccncn1,< 5.38,5.30,
O=C(NO)c1sc2ccccc2c1Cl,< 4.38,5.42,
COc1cccc2c(N)c3c(cnn3C)nc12,< 5.38,5.92,
CC(C)(C)c1ccc(/C=N/n2cnnc2)cc1,< 4.38,6.31,
NC(=O)c1ccc(Nc2ccccc2)[nH]c1=O,5.28,5.26,
Cc1ccc(C(=O)C(CO)n2ccnc2)cc1 (stereo unspecified),< 4.38,5.69,
Cc1cc(Cl)n(C)c2nc3ccccc3c1-2,< 4.98,6.20,
CC(C)(C)C/C(=N\NC(=N)N)c1ccccc1,< 4.68,5.27,
C/N=c1\nnc(Nc2ccccc2O)c(N)o1,5.33,6.54,
Cc1cccc(N2CCN(CCN)CC2)c1C,< 4.38,5.28,
CCCCOc1ccccc1/C=N/NC(=N)N,< 4.38,5.27,
O=C(COc1ccc(Cl)cc1Cl)NO,< 4.68,6.04,
CCCCNCc1[nH]c2ccccc2c1Cl,< 4.68,5.51,
CCN1CCO/C1=C\C=C\C1=[N+](CC)CCO1,< 4.38,6.78,
Nc1ccc2c(c1)C(=O)C(=O)c1cc(N)ccc1-2,< 4.68,6.01,
O=C1CN(Cc2ccccc2)c2ccccc2N1,5.08,6.00,
CCCCOc1ccc(CSC(=N)N)cc1,< 4.68,5.26,
N=C(N)N/N=C1/C(=O)Nc2ccc(Br)cc21,< 4.38,,
CCN(CC)CCOC(COC)(c1ccc(Cl)cc1)c1ccc(Cl)cc1,,< 4.98,
Cc1ccc(S(=O)(=O)/N=C2\C=C(N3CCOCC3)C(=O)c3ccccc32)cc1,,< 4.98,

SMILES,pIC50 [1],"pIC50 ([2]; Trypanosoma brucei, STIB 795)",pIC50 [2]
CC(C)CCOc1ccc(/C=N/NC(=O)C23CC4CC(C)(CC(C)(C4)C2)C3)cc1,,< 4.98,
CCN(CC)CC(O)CN(/N=C/c1ccc(N(CC)CC)cc1)c1ccccc1 (stereo unspecified),,< 4.98,
CCOC(=O)COc1ccc(/C=C\c2cc(C(F)(F)F)nc(=O)[nH]2)cc1OC,,< 4.98,
Cc1ccc(O)c(/C=N/NC(=O)C2=NNC(c3ccccc3)(c3ccccc3)C2)c1,,< 4.98,
COc1cc(C(CC(=O)c2ccco2)Sc2ccccc2)cc(OC)c1OC (stereo unspecified),,< 4.98,
COc1ccc(C(=O)NN=C2C=C(C(C)(C)C)C(=O)C(C(C)(C)C)=C2)cc1OC,,< 4.98,
CCOC(=O)C1=C(C)NC(SCC(=O)c2ccccc2)=C(C#N)C1CC(C)C (stereo unspecified),,< 4.98,
Cc1ccc(NC(=O)CN(C)C(=O)c2ccc3c(c2)nnn3C(C)C)c(Cl)c1,,< 4.98,
N=c1n(Cc2ccccc2)c2ccccc2n1CC(O)c1ccc(Cl)cc1 (stereo unspecified),< 4.68,5.26,5.27
O=S1(=O)Nc2c(ccc3cccnc23)-c2ccccc21,< 4.68,5.54,
c1ccc(Nc2nc(-c3ccccn3)cs2)nc1,< 4.98,6.14,
OCCNC1CCCc2c1[nH]c1ccc(Br)cc21 (stereo unspecified),< 4.68,5.61,5.74
CC1=CC(C)(C)N=C(Nc2nc(C)c3cc(C)cc(C)c3n2)N1,5.23,5.43,
CN1CCN(Nc2ccnc3cc4ccccc4cc23)CC1,5.47,6.45,
CCN1C(=Cc2sc3ccc(Cl)cc3[n+]2CC)C=Cc2cc(OC)ccc21,< 5.38,6.15,
CC(C)CC[n+]1ccccc1C=Cc1ccc(N(C)C)cc1,< 4.98,6.13,
Cc1cc(NC2CCCCC2)nc(NCc2ccccc2)n1,< 4.38,5.35,
N=c1c2c(n(Cc3ccc(Cl)cc3Cl)c3c1CCC3)CCCC2,< 4.38,6.07,
CCC(C)(C)c1ccc(OCC(O)CNCc2ccccc2)c(C(C)(C)CC)c1 (stereo unspecified),,< 4.98,
COC(=O)C1=C(OC)C(=O)OC12C=CC(=O)C=C2,5.97,6.28,
CN1/C(=C/c2cccc[n+]2C)Sc2ccccc21,< 4.68,6.32,
CC[n+]1c(/C=C2\Sc3cc(NC(C)=O)ccc3N2C)ccc2ccccc21,< 4.38,5.27,
CCCc1c(CC)c(=N)c2ccccc2n1C,< 4.38,5.34,
CCN1C(C)=C(C)S/C1=C\c1ccc2cc(C)ccc2[n+]1C,< 5.38,6.50,
Cc1ccc(-c2cn3c([n+]2-c2ccc(C)cc2)CCCCC3)cc1,< 4.68,5.19,
CC(C)(C)C1CCc2nc(N)nc(N)c2C1 (stereo unspecified),< 5.38,≥ 5.47,
